What follows are compounds tested on HIV-1 (H9IIIB strain) (assay: Antiviral acute infection assay in cell culture (Spread)). Settings: HIV-1 H9IIIB infection of MT-4 human T-lymphoid cells in 10% FBS; mean of at least two independent experiments.
Assay type: cell-based
Description: Antiviral Assays in Cell Culture (“Spread”)
Acute Infection Assay (“Spread”) data were generated using HIV-1 (H9IIIB strain) infection of MT-4 human T-lymphoid cells in 10% FBS, and according to the methods disclosed by J. P. Vacca et al, “L-735,524: An orally bioavailable human immunodeficiency virus type 1 protease inhibitor,” Proc. Natl. Acad. Sci. USA, Vol. 91, pp. 4096-4100 (April 1994).

| EC50 [µM] | Structure (SMILES) |
| --- | --- |
| 0.38 | O=C(C[C@@H](c1ccc(F)cc1)c1ccc(OC(F)(F)F)cc1)Nc1cccc(F)c1CC[C@@H]1CN[C@H](COC(=O)NCC(F)(F)F)CO1 [Example 159, [(3S,6R)-6-{2-[2-fluoro-6-({(3R)-3-(4-fluorophenyl)-3-[4-(trifluoro-methoxy)phenyl]propanoyl}amino)phenyl]ethyl}morpholin-3-yl] methyl (2,2,2-trifluoroethyl)carbamate] |

Same assay, conditions: Human immunodeficiency virus 1, T-lymphoid, HIV-1 H9IIIB infection of MT-4 human T-lymphoid cells in 10% FBS; mean of at least two independent experiments

| Structure (SMILES) | EC50 [µM] |
| --- | --- |
| N[C@H](C(=O)Nc1cncc(F)c1CC[C@@H]1CN[C@H](COC(=O)NCC(F)(F)F)CO1)[C@@H](c1ccc(F)cc1)C1CCOCC1 [Example 127, (βR)-4-Fluoro-N-(5-fluoro-4-{2-[(2R,5S)-5-({[(2,2,2-trifluoroethyl)carbamoyl]oxy}methyl)morpholin-2-yl]ethyl}pyridin-3-yl)-β-(tetrahydro-2H-pyran-4-yl)-L-phenylalaninamide] | 0.071 |
| N[C@H](C(=O)Nc1cccc(F)c1CC[C@@H]1CN[C@H](COC(=O)NCC(F)(F)F)CO1)[C@@H](c1ccc(F)cc1)C1CCOCC1 [Example 128, (βR)-4-Fluoro-N-(3-fluoro-2-{2-[(2R,5S)-5-({[(2,2,2-trifluoroethyl)carbamoyl]oxy}methyl)morpholin-2-yl]ethyl}phenyl)-β-(tetrahydro-2H-pyran-4-yl)-L-phenylalaninamide] | 0.091 |
| O=C(C[C@@H](c1ccc(F)cc1)c1ccc(C(F)(F)F)nc1)Nc1cncc(F)c1CC[C@@H]1CN[C@H](COC(=O)NCC(F)(F)F)CO1 [Example 133, [(3S,6R)-6-{2-[3-Fluoro-5-({(3S)-3-(4-fluorophenyl)-3-[6-(trifluoromethyl)pyridin-3-yl]propanoyl}amino)pyridin-4-yl]ethyl}morpholin-3-yl]methyl (2,2,2-trifluoroethyl)carbamate] | 0.023 |
| O=C(C[C@@H](c1ccc(F)cc1)c1cncc(C(F)(F)F)c1)Nc1cccc(F)c1CC[C@@H]1CN[C@H](COC(=O)NCC(F)(F)F)CO1 [Example 139, [(3S,6R)-6-{2-[2-Fluoro-6-({(3S)-3-(4-fluorophenyl)-3-[5-(trifluoromethyl)pyridin-3-yl]propanoyl}amino)phenyl]ethyl}morpholin-3-yl]methyl (2,2,2-trifluoroethyl)carbamate] | 0.108 |
| O=C(CC(F)(F)F)NC[C@@H]1CO[C@H](CCc2c(F)cncc2NC(=O)CC(c2ccc(F)cc2)c2ccc(F)cc2)CN1 [Example 143, N-({(3R,6R)-6-[2-(3-{[3,3-Bis(4-fluorophenyl)propanoyl]amino}-5-fluoropyridin-4-yl)ethyl]morpholin-3-yl}methyl)-3,3,3-trifluoropropanamide] | 0.04 |
| O=C(CC(F)(F)F)NC[C@@H]1CO[C@H](CCc2c(F)cccc2NC(=O)CC(c2ccc(F)cc2)c2ccc(F)cc2)CN1 [Example 144, N-({(3R,6R)-6-[2-(2-{[3,3-Bis(4-fluorophenyl)propanoyl]amino}-6-fluorophenyl)ethyl]morpholin-3-yl}methyl)-3,3,3-trifluoropropanamide] | 0.17 |
| NC(=O)OC[C@@H]1CO[C@H](CCc2c(F)cccc2NC(=O)CC(c2ccccc2)c2ccccc2)CN1 [Example 152, [(3S,6R)-6-(2-{2-[(3,3-diphenylpropanoyl)amino]-6-fluorophenyl}ethyl)morpholin-3-yl] methyl carbamate] | 0.088 |
| O=C(C[C@@H](c1ccc(F)cc1)c1ccccc1F)Nc1cncc(F)c1CC[C@@H]1CN[C@H](COC(=O)NCC(F)(F)F)CO1 [Example 158, {(3S,6R)-6-[2-(3-fluoro-5-{[(3S)-3-(2-fluorophenyl)-3-(4-fluorophenyl)propanoyl]amino}pyridin-4-yl)ethyl]morpholin-3-yl]methyl (2,2,2-trifluoroethyl)carbamate] | 0.034 |
| O=C(CC(c1ccc(F)cc1)c1ccc(F)cc1)Nc1cncc(F)c1CC[C@@H]1CN[C@H](COC(=O)NCCNc2ccccc2)CO1 [Example 168, {(3S,6R)-6-[2-(3-{[3,3-bis(4-fluorophenyl)propanoyl]amino}-5-fluoropyridin-4-yl)ethyl]morpholin-3-yl}methyl [2-(phenyl-amino)ethyl]carbamate] | 0.013 |
| O=C(CC(c1ccc(F)cc1)c1ccc(F)cc1)Nc1cncc(F)c1CC[C@@H]1CN[C@H](COC(=O)NCC2CCCO2)CO1 (stereo partly drawn) [Example 169, {(3S,6R)-6-[2-(3-{[3,3-bis(4-fluoro-phenyl)propanoyl]amino}-5-fluoropyridin-4-yl)ethyl]morpholin-3-yl}methyl (tetrahydrofuran-2-ylmethyl)carbamate] | 0.073 |
| O=C(CC(c1ccc(F)cc1)c1ccc(F)cc1)Nc1cncc(F)c1CC[C@@H]1CN[C@H](COC(=O)NCCOc2ccccc2)CO1 [Example 170, {(3S,6R)-6-[2-(3-{[3,3-bis(4-fluoro-phenyl)propanoyl]amino}-5-fluoropyridin-4-yl)ethyl]morpholin-3-yl}methyl (2-phenoxyethyl)carbamate] | 0.061 |

Results, then the compound that gave them:

| EC50 [µM] | Structure (SMILES) |
| --- | --- |
| 0.018 | COC(=O)N[C@H](C(=O)Nc1cccc(F)c1OC[C@@H]1CN[C@H](COC(N)=O)CO1)[C@@H](c1ccc(F)cc1)c1cccc(F)c1 [Example 117, (βS)—N-[2-({(2S,5S)-5-[(Carbamoyloxy)methyl]morpholin-2-yl}methoxy)-3-fluorophenyl]-4-fluoro-β-(3-fluorophenyl)-Nα-(methoxycarbonyl)-L-phenylalaninamide] |
| 0.017 | COC(=O)N[C@H](C(=O)Nc1cccc(F)c1CC[C@@H]1CN[C@H](COC(N)=O)CO1)[C@@H](c1ccc(F)cc1)c1cccc(F)c1 [Example 118, (βS)—N-[2-(2-{(2R,5S)-5-[(Carbamoyloxy)methyl]morpholin-2-yl}ethyl)-3-fluorophenyl]-4-fluoro-β-(3-fluorophenyl)-Nα-(methoxycarbonyl)-L-phenylalaninamide] |
| 0.02 | NC(=O)OC[C@@H]1CO[C@H](CCc2c(F)cccc2NC(=O)[C@@H](N)[C@@H](c2ccc(F)cc2)c2cccc(F)c2)CN1 [Example 120, (βS)—N-[2-(2-{(2R,5S)-5-[(Carbamoyloxy)methyl]morpholin-2-yl}ethyl)-3-fluorophenyl]-4-fluoro-β-(3-fluorophenyl)-L-phenylalaninamide] |
| 0.044 | N[C@H](C(=O)Nc1cccc(F)c1CC[C@@H]1CN[C@H](COC(=O)N[C@H]2CCCOC2)CO1)C(c1ccc(F)cc1)c1ccc(F)cc1 [Example 122, 4-Fluoro-β-(4-fluorophenyl)-N-(3-fluoro-2-{2-[(2R,5S)-5-({[(3S)-tetrahydro-2H-pyran-3-ylcarbamoyl]oxy}methyl)morpholin-2-yl]ethyl}phenyl)-L-phenylalaninamide] |
| 0.028 | COC(=O)N[C@H](C(=O)Nc1cccc(F)c1CC[C@@H]1CN[C@H](COC(=O)NCC(F)(F)F)CO1)[C@@H](c1ccc(Cl)cc1)c1ccncc1F [Example 134, (βS)-4-Chloro-β-(3-fluoropyridin-4-yl)-N-(3-fluoro-2-{2-[(2R,5S)-5-({[(2,2,2-trifluoroethyl)carbamoyl]oxy}methyl)morpholin-2-yl]ethyl}phenyl)-Nα-(methoxycarbonyl)-L-phenylalaninamide] |
| 0.06 | N[C@H](C(=O)Nc1cccc(F)c1CC[C@@H]1CN[C@H](COC(=O)NCC(F)(F)F)CO1)[C@@H](c1ccc(Cl)cc1)c1ccncc1F [Example 136, (βS)-4-Chloro-β-(3-fluoropyridin-4-yl)-N-(3-fluoro-2-{2-[(2R,5S)-5-({[(2,2,2-trifluoroethyl)carbamoyl]oxy}methyl)morpholin-2-yl]ethyl}phenyl)-L-phenylalaninamide] |
| 0.0098 | COC(=O)N[C@H](C(=O)Nc1cccc(F)c1CC[C@@H]1CN[C@H](COC(=O)NCC(F)(F)F)CO1)[C@@H](c1ccc(Cl)cc1)c1cncc(F)c1 [Example 137, (βS)-4-Chloro-β-(5-fluoropyridin-3-yl)-N-(3-fluoro-2-{2-[(2R,5S)-5-({[(2,2,2-trifluoroethyl)carbamoyl]oxy}methyl)morpholin-2-yl]ethyl}phenyl)-Nα-(methoxycarbonyl)-L-phenylalaninamide] |
| 0.031 | O=C(C[C@@H](c1ccc(F)cc1)c1ccncc1F)Nc1cccc(F)c1CC[C@@H]1CN[C@H](COC(=O)NCC(F)(F)F)CO1 [Example 138, {(3S,6R)-6-[2-(2-Fluoro-6-{[(3S)-3-(4-fluorophenyl)-3-(3-fluoropyridin-4-yl)propanoyl]amino}phenyl)ethyl]morpholin-3-yl}methyl (2,2,2-trifluoroethyl)carbamate] |
| 0.15 | CC1(C(=O)N[C@H](C(=O)Nc2cccc(F)c2CC[C@@H]2CN[C@H](COC(=O)NCC(F)(F)F)CO2)C(c2ccc(F)cc2)c2ccc(F)cc2)CC1 [Example 142, 4-Fluoro-β-(4-fluorophenyl)-N-(3-fluoro-2-{2-[(2R,5S)-5-({[(2,2,2-trifluoroethyl)carbamoyl]oxy}methyl)morpholin-2-yl]ethyl}phenyl)-Nα-[(1-methylcyclopropyl)carbonyl]-L-phenylalaninamide] |
| 0.13 | O=C(C[C@@H](c1ccc(F)cc1)c1cccc(F)c1F)Nc1cccc(F)c1CC[C@@H]1CN[C@H](COC(=O)NCC(F)(F)F)CO1 [Example 153, {(3S,6R)-6-[2-(2-{[(3S)-3-(2,3-difluorophenyl)-3-(4-fluorophenyl)propanoyl]amino}-6-fluoro-phenyl)ethyl]morpholin-3-yl}methyl (2,2,2-trifluoroethyl)carbamate] |
| 0.031 | N#Cc1cccc([C@@H](CC(=O)Nc2cccc(F)c2CC[C@@H]2CN[C@H](COC(=O)NCC(F)(F)F)CO2)c2ccc(F)cc2)c1 [Example 160, {(3S,6R)-6-[2-(2-{[(3S)-3-(3-cyanophenyl)-3-(4-fluorophenyl)propanoyl]amino}-6-fluoro-phenyl)ethyl]morpholin-3-yl}methyl (2,2,2-trifluoroethyl)carbamate] |

From US9315475B2 (MERCK SHARP & DOHME CORP., priority 2011, dated 2016)
